In US20240189330A1, “Compositions and Methods for Inhibiting and Treating Viral Infections” (The Regents of the University of California, priority 2021, published 2024):
Entries after “also recorded” stand apart in the source; their conditions may differ. Where a name gives a salt, the structure may show the parent alone.

Legend:
[1] = test system: Human rhinovirus type 16 (HRV16); assay type: cell-based
[2] = test system: Influenza A Virus, subtype H1N1; assay type: cell-based
human mammalian cells = conditions: cited from earlier work

Q: For `COC(=O)/C=C/C(=O)OC` [DMF, dimethyl fumarate], which “HRV16 viral replication by qPCR” value [1] is on record?
A: The value was “minimally inhibit HRV16 replication; also recorded: little antiviral activity”.

Q: What about the “H1N1 viral replication by qPCR” value [2] of the same molecule?
A: Its value is “inhibit H1N1 replication; also recorded: inhibit the replication”.

Q: Which “concentration physiologically relevant, efficacious and non-cytotoxic” value (human mammalian cells) does the source give for `COC1=C(OC)C(=O)C(CCCCCCCCCC[P+](c2ccccc2)(c2ccccc2)c2ccccc2)=C(C)C1=O` [Mito-MES, 10-(4,5-dimethoxy-2-methyl-3,6-dioxo-1,4-cyclohexadienyl) decyl triphenylphosphonium] here?
A: The value was under 2000 nM.
